{
  "source": "patent US6114318A",
  "about": "“17β-(2-oxo-tetrahydrofuranyl)-thio- substituted androstane derivatives” (Glaxo Group Limited, priority 1995, dated 2000)",
  "key": {"[1]": {"tested_on": "Rat Ear Oedema", "experiment": "Anti-Inflammatory Activity--Inhibition of Rat Ear Oedema (croton oil)", "format": "in vivo", "settings": "dose 100 μg, inner surface of ears, male rats, 6 hours", "experimental": "(i) Anti-Inflammatory Activity--Inhibition of Rat Ear Oedema\nThe test compounds are dissolved in acetone and 40ul containing 5% croton oil is applied to the inner surface of each of the ears of 60-80 g male rats. Animals are killed 6 hours later and the ears are removed. Standard size (0.5 cm diameter) discs are punched out and the discs weighed. Mean weight of the ear discs is calculated and from this percentage inhibition of ear inflammation in relation to croton oil alone treated ears are calculated."}, "[2]": {"tested_on": "ACTH", "experiment": "Systemic Effects--ACTH Suppression in Adrenalectomised Rats", "format": "in vivo, Male CD rats", "settings": "single intra-tracheal, 4 h", "experimental": "(ii) Systemic Effects--ACTH Suppression in Adrenalectomised Rats\nMale CD rats (90-120 g) were adrenalectomised under Isoflurane anaesthesia and drinking water was supplemented with 0.9% saline. Four days later the animals receive a single intra-tracheal dose (under Isoflurane anaesthesia) of compound suspended in saline (containing 0.2% Tween-80, 0.2 ml) at 10am. After 4 h animals are sacrificed by administration of Euthetal and blood samples are taken by intra-cardiac puncture and collected into heparinised tubes. The samples are centrifuged (20 minutes at 1000 RPM at 4 deg C.), the plasma is collected and assayed by Radioimmunoassay (RIA) for Adrenocorticotrophic hormone (ACTH) using a DPC double antibody RIA kit. Intact and vehicle control groups were included in each experiment in order to account for diurnal variation in ACTH and effects of vehicle. Results are calculated with respect to the RIA standard curve and expressed as ACTH pg/ml plasma, allowing percentage reduction in ACTH to be calculated."}},
  "data": [
    {"smiles": "CC1(C)O[C@@H]2C[C@H]3[C@@H]4C[C@H](F)C5=CC(=O)C=C[C@]5(C)[C@@]4(F)[C@@H](O)C[C@]3(C)[C@]2(SC2CCOC2=O)O1", "note": "(single isomer, unassigned) [Example 2 Isomer A, 6α,9α-Difluoro-11β-hydroxy-16α,17α-isopropylidenedioxy-17β-(2-oxo-tetrahydro-furan-3-yl-sulfanyl)-androsta-1,4-dien-3-one]", "values": [
      {"measurement": "% Inhibition (ear inflammation)", "setting": "[1]", "value": 56, "unit": "%"},
      {"measurement": "% Reduction in ACTH", "setting": "[2]; dose 125 μg", "value": 5, "unit": "%"},
      {"measurement": "% Reduction in ACTH", "setting": "[2]; dose 250 μg", "value": 29, "unit": "%"},
      {"measurement": "% Reduction in ACTH", "setting": "[2]; dose 500 μg", "value": 45, "unit": "%"}
    ]},
    {"smiles": "CC1(C)O[C@@H]2C[C@H]3[C@@H]4C[C@H](F)C5=CC(=O)C=C[C@]5(C)[C@@]4(F)[C@@H](O)C[C@]3(C)[C@]2(S[C@H]2CCOC2=O)O1", "note": "(single isomer, unassigned) [Example 2 Isomer B, 6α,9α-Difluoro-11β-hydroxy-16α,17α-isopropylidenedioxy-17β-(2-oxo-tetrahydro-furan-3-yl-sulfanyl)-androsta-1,4-dien-3-one]", "values": [
      {"measurement": "% Inhibition (ear inflammation)", "setting": "[1]", "value": 54, "unit": "%"}
    ]},
    {"smiles": "CCC[C@@H]1O[C@@H]2C[C@H]3[C@@H]4C[C@H](F)C5=CC(=O)CC[C@]5(C)[C@@]4(F)[C@@H](O)C[C@]3(C)[C@]2(SC2CCOC2=O)O1", "note": "(single isomer, unassigned) [Example 3 Isomer A, 16α,17α-(R-Butylidenedioxy)-6α,9α-difluoro-11β-hydroxy-17β-(2-oxo-tetrahydro-furan-3-yl-sulfanyl)-androst-4-en-3-one]", "values": [
      {"measurement": "% Inhibition (ear inflammation)", "setting": "[1]", "value": 55, "unit": "%"}
    ]},
    {"smiles": "CC1(C)O[C@@H]2C[C@H]3[C@@H]4C[C@H](F)C5=CC(=O)C=C[C@]5(C)[C@@]4(F)[C@@H](O)C[C@]3(C)[C@]2(C(=O)CO)O1", "note": "[Fluocinolone acetonide, reference compound]", "values": [
      {"measurement": "% Reduction in ACTH", "setting": "[2]; dose 1 μg", "value": 49, "unit": "%"},
      {"measurement": "% Reduction in ACTH", "setting": "[2]; dose 5 μg", "value": 84, "unit": "%"}
    ]}
  ]
}
